According to patent US9808482B2, “Sulphated hyaluronic acids as regulator agents of the cytokine activity” (FIDIA FARMACEUTICI S.p.A., priority 2009, dated 2017):

Experiments:
[1] = molecular target: T1, IL-1 receptor (Mus musculus, UniProt P13504); assay: Inhibition of the binding of 125I-IL-1 to its receptor on 3T3 fibroblasts (radioligand binding); parameters: species or system mice; conditions: HAS degree 3, both medium and low MW; 3T3 cells, 1 mg/ml, 125I-IL-1 10 pM, 37° C. 2 hours; FIG. 4
T1 construct: the line of murine fibroblasts 3T3 was used, sensitive to the cytotoxic activity of IL-1, expressing its relative receptor; endogenous in cells; host or cells: 3T3 murine fibroblasts
T1 sequence (P13504 20-576): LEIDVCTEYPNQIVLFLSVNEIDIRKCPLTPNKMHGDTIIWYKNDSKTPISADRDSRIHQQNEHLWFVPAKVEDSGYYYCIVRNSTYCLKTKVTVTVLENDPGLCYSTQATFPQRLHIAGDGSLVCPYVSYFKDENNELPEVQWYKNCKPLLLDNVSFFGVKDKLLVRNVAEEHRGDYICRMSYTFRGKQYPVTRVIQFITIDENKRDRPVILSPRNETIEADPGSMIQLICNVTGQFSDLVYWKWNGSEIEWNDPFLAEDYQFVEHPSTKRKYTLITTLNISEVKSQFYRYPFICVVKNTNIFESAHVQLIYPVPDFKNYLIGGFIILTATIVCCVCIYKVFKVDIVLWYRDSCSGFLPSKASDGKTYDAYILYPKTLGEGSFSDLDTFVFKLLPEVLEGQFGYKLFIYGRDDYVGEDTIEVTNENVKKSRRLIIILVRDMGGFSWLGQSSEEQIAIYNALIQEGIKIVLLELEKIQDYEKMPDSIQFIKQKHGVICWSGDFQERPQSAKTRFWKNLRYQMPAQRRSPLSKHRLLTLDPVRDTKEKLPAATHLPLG
Description: The experimental procedure was effected as described in Chin J et al., J Exp Med, 1987, 165:70-86. In short, the line of murine fibroblasts 3T3 was used, sensitive to the cytotoxic activity of IL-1, expressing its relative receptor. […] At the end of the incubation, the cells were washed with phosphate buffer, then dissolved in 2.5 M of NaOH and counted in a γ-counter.

[2] = tested on: IL-10; assay: Protein synthesis of IL-10 in human PBMC; format: cell-based; conditions: 0.1 or 1 mg/ml, 24 hours, FIG. 9 (HAS1, HAS3)
Description: For these experimentations, mononucleate cells of human peripheral blood (PBMC) were adopted, deriving from many different donors for evaluating the effect of HAS on the production of the cytokines listed above, using: • non-sulfated HA (average MW: 200 KD), • HAS1 and HAS3 (prepared as described in Examples 1-3 (average MW: 200 KD). […] At day zero 100,000 cells were seeded per well (using plates with 96 wells) in 200 μl of medium RPMI 1640, to which 10% of fetal bovine serum, HEPES 10 mM, Glutamine 2 mM, 1% Penicillin-Streptomycin 100 U/ml, had been added. The effect of all the samples was evaluated on non-treated PBMC with agents which stimulate the synthesis of cytokines, or stimulated with Lipopolysaccharide LPS (10 μg/ml) (highly pro-inflammatory) or with Phytohemagglutinin PHA (10 μg/ml) (a substance capable of stimulating the lymphocytes to divide themselves), both agents capable of stimulating the synthesis of cytokines. The cells were treated separately with the three compounds at a concentration of 0.1 mg/ml or 1 mg/ml. After 24 hours of incubation at 37° C. […] The quantification of the inflammation mediators was effected by means of the SearchLight® technology, using a Custom Human 9-Plex Array plate following the protocol indicated by the supplier in the technical card.

[3] = molecular target: T2, IL-6 receptor (Homo sapiens, UniProt P08887); assay: Inhibition of the binding of 125I-IL-6 to its receptor on human myeloma U266 (radioligand binding); conditions: HAS degree 3, both medium and low MW; U266 cells, 1 mg/ml, 125I-IL-6 0.08 nM, 4° C. 16 hours; FIG. 5
T2 construct: the line of human myeloma U266 was used, sensitive to the cytotoxic activity of IL-6, expressing its relative receptor; endogenous in cells; host or cells: U266 human myeloma cells
T2 sequence (P08887 20-468): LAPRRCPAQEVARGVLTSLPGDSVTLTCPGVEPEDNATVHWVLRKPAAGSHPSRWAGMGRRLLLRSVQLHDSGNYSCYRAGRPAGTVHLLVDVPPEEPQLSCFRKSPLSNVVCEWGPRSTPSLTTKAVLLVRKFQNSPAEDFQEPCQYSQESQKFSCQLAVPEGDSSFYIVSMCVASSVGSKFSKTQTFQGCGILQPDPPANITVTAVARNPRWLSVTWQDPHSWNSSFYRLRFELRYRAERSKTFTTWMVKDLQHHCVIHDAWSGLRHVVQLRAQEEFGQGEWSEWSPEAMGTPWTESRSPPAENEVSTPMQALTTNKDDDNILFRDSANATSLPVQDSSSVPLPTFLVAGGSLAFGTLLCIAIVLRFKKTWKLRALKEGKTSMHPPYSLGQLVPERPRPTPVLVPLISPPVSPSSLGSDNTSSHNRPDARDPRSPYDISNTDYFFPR
Description: The experimental procedure was effected as described in Taga T. et al., J Exp Med, 1987, 166:967-981. In short, the line of human myeloma U266 was used, sensitive to the cytotoxic activity of IL-6, expressing its relative receptor. […] At the end of the incubation, the cells were washed with phosphate buffer, centrifuged at 9,000 rpm and the pellet counted in a γ-counter.

[4] = tested on: Vesicular stomatitis virus; format: cell-based; conditions: E6SM cells; samples average MW 200 KD; FIG. 11

Row | Compound | inhibition of the binding of IL-1 to its receptor [1] | production of IL-10 [2] | inhibition of the binding of IL-6 to its receptor [3] | antiviral activity vs VSV (inhibition of cytopathogenicity) [4]
1 | sulfated hyaluronic acid [HAS] | 30% | evident stimulus | up to 100% | –
2 | Nc1nc2c(ncn2COCCO)c(=O)[nH]1 [acyclovir] | – | – | – | inactive
